Reference: patent publication US5153352A, “Process for preparation of intermediates of carbocyclic nucleoside analogs” (priority 1990, dated 1992)
Values after ≈ are worked out from the molar mass of the structure shown. Values joined by “and” are separate entries in the source; they are usually repeats but may differ in a detail not shown here. Equal values may be shown once.

Tests used:
[1] = test system: Human Immunodeficiency Virus (HIV-1); assay: anti-HIV-1 protection of ATH8 cells (method of Mitsuya and Broder); format: cell-based; details: Human immunodeficiency virus 1, ATH-8, HIV-1, ATH8 cells, read-out: Protective Effect
Excerpt: (§1) The method of Mitsuya and Broder (AIDS: Modern Concepts and Therapeutic Challenges; Broder, S. ED.; Marcel Dekker, Inc.; New York, 1987; Chapter 18) was used to determine the in vitro anti-HIV-1 and anti-HIV-2 activity in ATH8 cells of some compounds of the invention. The results of the test are expressed as the percentage of ATH8 cells that were protected from the cytopathogenic effects of HIV at various concentrations of the compound of the invention.

[2] = test system: Herpes simplex type 2 (HSV-2) strain MS; assay: CPE-inhibition assay, HSV-2 strain MS in Vero cells; details: for EC50: Human alphaherpesvirus 2, Vero, read-out: ID50 (minimum drug concentration that inhibited the CPE by 50%), HSV-2 (MS), Vero
[3] = test system: P388D1: Lymphocytic Leukemia; assay: cytotoxic activity against cultured tumor cells, P388-D1; format: cell-based; details: Mus musculus, P388D1, 72 h; P388-D1, 3 days, MTT
[4] = test system: HCT8: Adenocarcinoma, ileocecal; assay: cytotoxic activity against cultured tumor cells, HCT-8; format: cell-based; details: Homo sapiens, 72 h; HCT-8, 3 days, MTT
[5] = test system: Herpes simplex type 1 (HSV-1) strain E-377; assay: CPE-inhibition assay, HSV-1 strain E-377 in Vero cells
[6] = test system: Human Immunodeficiency Virus (HIV-2); assay: anti-HIV-2 protection of ATH8 cells (method of Mitsuya and Broder); format: cell-based; details: ATH-8, HIV-2, ATH8 cells, read-out: Protective Effect
Excerpt: as §1

[7] = MTT cytotoxicity assay in MRC5 cells; format: cell-based; details: human
Method: (§2) Human diploid embryonic lung (MRC5) cells were grown in 35 mm wells of 6-well tissue culture plates. Subconfluent cell monolayers were rinsed with phosphate buffered saline (PBS) and were exposed to 0.5 ml/well of HCMV (strain AD169) suspension for 1.5 hours at 37° C. The virus suspension was diluted in MEM+2% fetal bovine serum (FBS) to yield a multiplicity of infection (MOI) of approximately 0.1 plaque forming units (PFU)/cell. Following the virus adsorption period, the inocula were removed and infected cell layers were rinsed with PBS. Aliquots (2.0 ml) of each test drug concentration (dissolved in MEM supplemented with 2% FBS) were dispensed into triplicate cell cultures: two virus infected cultures and one uninfected cytotoxicity control culture (exposed to medium without virus for 1.5 hours). Untreated virus infected control cultures and untreated, uninfected cell control cultures were fed with medium alone.
(§3) All cell culture fluids were replaced with fresh drug and medium 48 hours postinfection (p.i.).
Drug cytotoxicity was determined quantitatively by a method based on the reduction of the tetrazolium salt, 3-(4,5-dimethyl-thiazol-2-yl)-2,5-diphenyl tetrazolium bromide (MTT) by mitochondrial enzymes of viable host cells to MTT formazan (T. Mosmann, 1983). Drug cytotoxicity controls and cell controls were treated with MTT (dissolved in culture medium) followed by 20% SDS (in 0.02 N HCl) to dissolve the crystals of MTT formazan. The blue color of the MTT formazan was measured spectrophotometrically at 570 nm. Drug cytotoxicity was determined by comparing the absorbance (O.D.) of each drug cytotoxicity control with the mean O.D. of the cell control cultures and expressed as percent of control.

[8] = cytotoxicity in uninfected PHA-stimulated human PBM cells; format: cell-based; details: uninfected PBMC, 6 days, read-out: Cytotoxicity in PBMC IC50
Method: Human peripheral blood mononuclear cells (PBMC) from healthy HIV-1 seronegative and hepatitis B virus seroneqative donors were isolated by Ficoll-Hypague discontinuous gradient centrifugation at 1,000×g for 30 minutes, washed twice in phosphate buffered saline (pH 7.2; PBS), and pelleted at 300×g for 10 minutes. Before infection, the cells were stimulated by phytohemagglutinin (PHA) at a concentration of 16.7 ug/ml for three days in RPMI 1640 medium supplemented with 15% heat-inactivated fetal calf serum, 1.5 mM L-glutamine, penicillin (100 U/ml), streptomycin (100 ug/ml) and 4 mM sodium bicarbonate buffer.
The test compounds were evaluated for their potential toxic effects on uninfected PHA-stimulated human PBM cells. The cells were cultured with and without test compound for 6 days at which time aliquots were counted for cell viability.

[9] = cytotoxicity in ATH8 cells (method of Mitsuya and Broder); format: cell-based; details: human
Excerpt: The method of Mitsuya and Broder (AIDS: Modern Concepts and Therapeutic Challenges; Broder, S. ED.; Marcel Dekker, Inc.; New York, 1987; Chapter 18) was used to determine the in vitro anti-HIV-1 and anti-HIV-2 activity in ATH8 cells of some compounds of the invention. […]

[10] = test system: Human Cytomegalovirus (HCMV); assay: HCMV virus yield reduction assay in MRC5 cells; format: cell-based, Human cytomegalovirus (strain AD169)
Method: as §2, §3
On Day 6 p.i., the cell layers were examined microscopically for cytopathogenic effect (CPE) and drug cytotoxicity. The test and virus control cultures were then harvested by subjecting the cell layers to one cycle of freeze-thawing.
The harvested test and virus control samples were thawed and the infectious virus yield was determined by plaque assay in MRC5 cells grown in 12-well cluster plates. Inhibition of HCMV replication by each test compound was determined by comparing the progeny virus yields in the drug-treated cultures with the progeny virus yield in the untreated, virus infected control cultures.

A549: Lung carcinoma = assay: cytotoxic activity against cultured tumor cells, A549; format: cell-based; details: Homo sapiens, 72 h; A549, 3 days, MTT
[11] = Human betaherpesvirus 5, 144 h, 1.0 ug/ml
[12] = Human betaherpesvirus 5, 144 h, 3.2 ug/ml
[13] = Human betaherpesvirus 5, 144 h, 10 ug/ml
[14] = Human betaherpesvirus 5, 144 h, 32 ug/ml

**Q.** Which results are given for `Nc1nc2c(ncn2C2CC(CO)C2CO)c(=O)[nH]1` (stereo not shown) [Example 1I, 9-(2',3'-Bis(hydroxymethyl)cyclobutyl)guanine]?
**A.** inhibition at 1 µM [1]: 51%; inhibition at 10 µM [1]: 90%; TI (Therapeutic Index, MTC/ID50) ([2]; HSV-2 (MS), Vero): 50 and 30; EC50 [2]: 6.4 µg/mL (≈ 24.1 µM); IC50 [3]: 2.8 µg/mL (≈ 10.6 µM); IC50 [4]: > 100 µg/mL; TI (Therapeutic Index, MTC/ID50) ([5]; HSV-1 (E-377), Vero): 213 and 129; EC50 ([5]; Human alphaherpesvirus 1, Vero, read-out: ID50 (minimum drug concentration that inhibited the CPE by 50%), HSV-1 (E-377), Vero): 1.5 µg/mL (≈ 5.65 µM); inhibition at 1 µM [6]: 24%; inhibition at 10 µM [6]: 65%; viability ([7]; 1.0 ug/ml): 100%; viability ([7]; 3.2 ug/ml): 100%; viability ([7]; 10 ug/ml): 100%; viability ([7]; 32 ug/ml): 100%; CC50 at 144 h [8]: 38.8 µM; cytotoxicity at 1 µM ([9]; HIV-1 experiment): 0%; cytotoxicity at 10 µM ([9]; HIV-1 experiment): 0%; cytotoxicity at 1 µM ([9]; HIV-2 experiment): 11%; cytotoxicity at 10 µM ([9]; HIV-2 experiment): 11%; HCMV yield ([10]; 1.0 ug/ml): 3.12 log10 PFU/ml; HCMV yield ([10]; 3.2 ug/ml): 2.43 log10 PFU/ml; HCMV yield ([10]; 10 ug/ml): 1.63 log10 PFU/ml; HCMV yield ([10]; 32 ug/ml): < 0.6 log10 PFU/ml; log reduction at 1 µg/mL [10, 11]: 1.15; log reduction at 3.2 µg/mL [10, 12]: 1.84; log reduction at 10 µg/mL [10, 13]: 2.64; log reduction at 32 µg/mL [10, 14]: > 3.7; IC50 (A549: Lung carcinoma): 94.6 µg/mL (≈ 357 µM)

**Q.** What does the source list for `Nc1ncnc2c1ncn2C1CC(CO)C1CO` (stereo not shown) [Example 4C, 9-(2',3'-Bis(hydroxymethyl)cyclobutyl)adenine]?
**A.** inhibition at 1 µM [1]: 48%; inhibition at 10 µM [1]: 63%; inhibition at 100 µM ([1]; 100 uM): 76%; EC50 [2]: 18.1 µg/mL (≈ 72.6 µM); IC50 [3]: 0.64 µg/mL (≈ 2.57 µM); IC50 [4]: 71.4 µg/mL (≈ 286 µM); TI (Therapeutic Index, MTC/ID50) ([5]; HSV-1 (E-377), Vero): 3.7 and > 2.2; VR (Virus Rating) ([5]; HSV-1 (E-377), Vero, >1.0 definite, 0.5-0.9 marginal to moderate, <0.5 no significant activity): 2.1; inhibition at 1 µM [6]: 33%; inhibition at 10 µM [6]: 70%; viability ([7]; 3.2 ug/ml): 95%; viability ([7]; 10 ug/ml): 90%; viability ([7]; 32 ug/ml): 67%; CC50 at 144 h [8]: 23 µM; cytotoxicity at 1 µM ([9]; HIV-1 experiment): 12%; cytotoxicity at 10 µM ([9]; HIV-1 experiment): 33%; cytotoxicity at 100 µM ([9]; HIV-1 experiment, 100 uM): 34%; cytotoxicity at 1 µM ([9]; HIV-2 experiment): 9%; cytotoxicity at 10 µM ([9]; HIV-2 experiment): 15%; HCMV yield ([10]; 0.32 ug/ml): 3.3 log10 PFU/ml; HCMV yield ([10]; 1.0 ug/ml): 2.6 log10 PFU/ml; HCMV yield ([10]; 3.2 ug/ml): < 0.6 log10 PFU/ml; HCMV yield ([10]; 10 ug/ml): < 0.6 log10 PFU/ml; HCMV yield ([10]; 32 ug/ml): < 0.6 log10 PFU/ml; log reduction at 0.32 µg/mL ([10]; Human betaherpesvirus 5, 144 h, 0.32 ug/ml): 1.4; log reduction at 1 µg/mL [10, 11]: 2.1; log reduction at 3.2 µg/mL [10, 12]: > 4.1; log reduction at 10 µg/mL [10, 13]: > 4.1; log reduction at 32 µg/mL [10, 14]: > 4.1; IC50 (A549: Lung carcinoma): 49.1 µg/mL (≈ 197 µM)
